Where “and” joins values, the source holds several entries; their conditions need not be identical. Equal entries are not always repeated. Inconclusive results and toxic doses are left out. How the source made its calls: active means survival T/C of 150% or more; inactive means T/C below 125% in these data.
System: P388 leukemia ip, CD2F1 mice, survival T/C
Test: NCI In Vivo Anticancer Drug Screen. Data for tumor model P388 Leukemia (intraperitoneal) in CD2F1 (CDF1) mice
Conditions: endpoint: median survival time, higher = longer survival
Outline: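 Mice carrying the transplanted tumor received test compound or vehicle. Survival was recorded in each group, and the value is the treated-group measurement divided by that of the vehicle-treated control group.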

[1] = dose: 12.5 mg/kg/injection, schedule: Q01DX009 (ip), vehicle: saline with Tween-80
[2] = dose: 25.0 mg/kg/injection, schedule: Q01DX009 (ip), vehicle: saline with Tween-80
[3] = dose: 50.0 mg/kg/injection, schedule: Q01DX009 (ip), vehicle: saline with Tween-80

Measured: T/C

CC(C)(N)C(=O)O
inactive: [1] 101 % of control | [2] 94 % of control | [3] 100 % of control | dose: 100.0 mg/kg/injection, schedule: Q01DX009 (ip), vehicle: saline with Tween-80 94 % of control | dose: 200.0 mg/kg/injection, schedule: Q01DX009 (ip), vehicle: saline with Tween-80 100 % of control | dose: 400.0 mg/kg/injection, schedule: Q01DX009 (ip), vehicle: saline with Tween-80 94 % of control | dose: 800.0 mg/kg/injection, schedule: Q01DX009 (ip), vehicle: saline with Tween-80 94 % of control | dose: 1600.0 mg/kg/injection, schedule: Q01DX009 (ip), vehicle: saline with Tween-80 94 % of control

CCN(CC)C(=O)N1C=CC(C)C=C1
inactive: dose: 60.0 mg/kg/injection, schedule: Q01DX005 (ip), vehicle: saline with Tween-80 100 % of control | dose: 120.0 mg/kg/injection, schedule: Q01DX005 (ip), vehicle: saline with Tween-80 101 % of control

O=C(O)C1CCC(CNCC2C(=O)OC3CCC4C(O)CC(O)C4CC32)CC1 (stereo not drawn)
inactive: dose: 100.0 mg/kg/injection, schedule: Q04DX002 (ip), vehicle: saline 97 % of control | dose: 200.0 mg/kg/injection, schedule: Q04DX002 (ip), vehicle: saline 100 % of control | dose: 400.0 mg/kg/injection, schedule: Q04DX002 (ip), vehicle: saline 105 % of control

CCCCCCCCCCCCCC(=O)OCCN1CCN(CCCN2c3ccccc3Sc3ccc(C(F)(F)F)cc32)CC1
inactive: dose: 3.12 mg/kg/injection, schedule: Q01DX009 (ip), vehicle: saline with Tween-80 106 % of control | dose: 6.25 mg/kg/injection, schedule: Q01DX009 (ip), vehicle: saline with Tween-80 102 % of control | [1] 112 % of control and 113 % of control | [2] 116 % of control

Cc1cc(C(C)(CC(C)C)c2ccc(O)c(C)c2)ccc1O
inactive: [2] 116 % of control | [3] 98 % of control

Oc1ccc[n+](CCCCCC[n+]2cccc(O)c2)c1
inactive: dose: 12.5 mg/kg/injection, schedule: Q01DX009 (ip), vehicle: water 118 % of control | dose: 25.0 mg/kg/injection, schedule: Q01DX009 (ip), vehicle: water 105 % of control | dose: 50.0 mg/kg/injection, schedule: Q01DX009 (ip), vehicle: water 110 % of control | dose: 100.0 mg/kg/injection, schedule: Q01DX009 (ip), vehicle: water 112 % of control | dose: 200.0 mg/kg/injection, schedule: Q01DX009 (ip), vehicle: water 102 % of control | dose: 400.0 mg/kg/injection, schedule: Q01DX009 (ip), vehicle: water 102 % of control

CC1CC2(CC(COc3ccccc3C(N)=O)OC2=O)C(=O)O1 (stereo not drawn)
inactive: dose: 50.0 mg/kg/injection, schedule: Q01DX005 (ip), vehicle: saline with Tween-80 100 % of control | dose: 100.0 mg/kg/injection, schedule: Q01DX005 (ip), vehicle: saline with Tween-80 100 % of control | dose: 200.0 mg/kg/injection, schedule: Q01DX005 (ip), vehicle: saline with Tween-80 97 % of control

COc1ccc(-c2coc3cc(O)ccc3c2=O)c(O)c1OC
inactive: dose: 100.0 mg/kg/injection, schedule: Q04DX003 (ip), vehicle: Klucel (hydroxypropylcellulose) (HPC) 97 % of control | dose: 200.0 mg/kg/injection, schedule: Q04DX003 (ip), vehicle: Klucel (hydroxypropylcellulose) (HPC) 101 % of control | dose: 400.0 mg/kg/injection, schedule: Q04DX003 (ip), vehicle: Klucel (hydroxypropylcellulose) (HPC) 99 % of control

[O]=[Nb]
inactive: dose: 2.5 mg/kg/injection, schedule: Q01DX009 (ip), vehicle: saline with Tween-80 100 % of control | dose: 5.0 mg/kg/injection, schedule: Q01DX009 (ip), vehicle: saline with Tween-80 100 % of control

COc1ccc(/C=N/NC(N)=O)c(OC)c1OC
inactive: dose: 50.0 mg/kg/injection, schedule: Q01DX009 (ip), vehicle: Klucel (hydroxypropylcellulose) (HPC) 100 % of control | dose: 100.0 mg/kg/injection, schedule: Q01DX009 (ip), vehicle: Klucel (hydroxypropylcellulose) (HPC) 103 % of control | dose: 200.0 mg/kg/injection, schedule: Q01DX009 (ip), vehicle: Klucel (hydroxypropylcellulose) (HPC) 98 % of control

CNC(=O)N(C)c1cc(N(C)C)nc(OC)n1
inactive: dose: 4.5 mg/kg/injection, schedule: Q01DX005 (ip), vehicle: saline + alcohol 100 % of control | dose: 9.0 mg/kg/injection, schedule: Q01DX005 (ip), vehicle: saline + alcohol 90 % of control | dose: 18.0 mg/kg/injection, schedule: Q01DX005 (ip), vehicle: saline + alcohol 98 % of control | dose: 36.0 mg/kg/injection, schedule: Q01DX005 (ip), vehicle: saline + alcohol 98 % of control | dose: 72.0 mg/kg/injection, schedule: Q01DX005 (ip), vehicle: saline + alcohol 101 % of control

COc1ccc(N2CCCSC2=S)cc1
inactive: dose: 50.0 mg/kg/injection, schedule: Q01DX005 (ip), vehicle: saline + Tween-80 + alcohol 101 % of control | dose: 100.0 mg/kg/injection, schedule: Q01DX005 (ip), vehicle: saline + Tween-80 + alcohol 101 % of control | dose: 200.0 mg/kg/injection, schedule: Q01DX005 (ip), vehicle: saline + Tween-80 + alcohol 100 % of control

CCC1(O)CC(OC2CC(N(C)C)C(OC3CC(O)C(O)C(C)O3)C(C)O2)c2c(cc3c(c2O)C(=O)c2c(O)ccc(O)c2C3=O)C1C(=O)OC (stereo not drawn)
inactive: dose: 3.13 mg/kg/injection, schedule: Q04DX003 (ip), vehicle: Klucel (hydroxypropylcellulose) (HPC) 100 % of control | dose: 6.25 mg/kg/injection, schedule: Q04DX003 (ip), vehicle: Klucel (hydroxypropylcellulose) (HPC) 110 % of control | dose: 50.0 mg/kg/injection, schedule: Q04DX003 (ip), vehicle: Klucel (hydroxypropylcellulose) (HPC) 120 % of control

OCC1OC(n2cnc3c2NC=NC[C@H]3O)CC1O (stereo partly drawn)
inactive: dose: 0.05 mg/kg/injection, schedule: Q03HX024 (ip), vehicle: clinical formulation 100 % of control | dose: 0.05 mg/kg/injection, schedule: Q03HX024 (ip), vehicle: water 99 % of control | dose: 0.1 mg/kg/injection, schedule: Q03HX024 (ip), vehicle: clinical formulation 100 % of control | dose: 0.1 mg/kg/injection, schedule: Q03HX024 (ip), vehicle: water 100 % of control | dose: 0.12 mg/kg/injection, schedule: Q01DX009 (ip), vehicle: water 111 % of control | dose: 0.13 mg/kg/injection, schedule: Q01DX009 (ip), vehicle: saline 112 % of control | dose: 0.2 mg/kg/injection, schedule: Q03HX024 (ip), vehicle: clinical formulation 100 % of control | dose: 0.2 mg/kg/injection, schedule: Q03HX024 (ip), vehicle: water 100 % of control | dose: 0.25 mg/kg/injection, schedule: Q01DX005 (ip), vehicle: water 101 % of control and 102 % of control | dose: 0.25 mg/kg/injection, schedule: Q01DX009 (ip), vehicle: saline 100 % of control and 119 % of control | dose: 0.25 mg/kg/injection, schedule: Q01DX009 (ip), vehicle: water 103 % of control and 111 % of control | dose: 0.25 mg/kg/injection, schedule: Q04DX002 (ip), vehicle: saline 99 % of control and 112 % of control | dose: 0.25 mg/kg/injection, schedule: Q04DX003 (ip), vehicle: saline 101 % of control | dose: 0.38 mg/kg/injection, schedule: Q01DX009 (ip), vehicle: saline 107 % of control | dose: 0.5 mg/kg/injection, schedule: Q01DX005 (ip), vehicle: water 99 % of control and 101 % of control | dose: 0.5 mg/kg/injection, schedule: Q01DX009 (ip), vehicle: saline 109 % of control and 110 % of control | dose: 0.5 mg/kg/injection, schedule: Q01DX009 (ip), vehicle: water 99 % of control and 118 % of control | dose: 0.5 mg/kg/injection, schedule: Q04DX002 (ip), vehicle: saline 106 % of control and 109 % of control | dose: 0.5 mg/kg/injection, schedule: Q04DX003 (ip), vehicle: saline 101 % of control | dose: 0.66 mg/kg/injection, schedule: Q01DX009 (ip), vehicle: saline 92 % of control | dose: 0.75 mg/kg/injection, schedule: Q01DX009 (ip), vehicle: saline 104 % of control | dose: 1.0 mg/kg/injection, schedule: Q01DX005 (ip), vehicle: water 102 % of control | dose: 1.0 mg/kg/injection, schedule: Q01DX009 (ip), vehicle: saline 107 % of control and 94 % of control | dose: 1.0 mg/kg/injection, schedule: Q01DX009 (ip), vehicle: water 101 % of control | dose: 1.5 mg/kg/injection, schedule: Q01DX009 (ip), vehicle: saline 103 % of control | dose: 2.0 mg/kg/injection, schedule: Q01DX005 (ip), vehicle: water 102 % of control | dose: 2.0 mg/kg/injection, schedule: Q01DX009 (ip), vehicle: saline 102 % of control | dose: 2.0 mg/kg/injection, schedule: Q01DX009 (ip), vehicle: water 86 % of control | dose: 3.0 mg/kg/injection, schedule: Q01DX009 (ip), vehicle: saline 107 % of control | dose: 4.0 mg/kg/injection, schedule: Q01DX005 (ip), vehicle: water 104 % of control | dose: 4.0 mg/kg/injection, schedule: Q01DX009 (ip), vehicle: water 86 % of control
